Experimental data: the NIST ThermoML archive (doi:10.1016/j.jct.2017.04.007)
Numbers after ± are expanded uncertainties.

Conditions: Liquid; for mass density: Vibrating tube method; for speed of sound: Frequency=3 MHz, Pulse-echo method

CCOC(F)(C(F)(F)C(F)(F)C(F)(F)F)C(F)(C(F)(F)F)C(F)(F)F (centres undefined) [2-trifluoromethyl-3-ethoxydodecafluorohexane]
Conditions	mass density, 333.15 K [kg/m3]	mass density, 343.15 K [kg/m3]	mass density, 353.15 K [kg/m3]	mass density, 363.15 K [kg/m3]	mass density, 373.15 K [kg/m3]	mass density, 383.15 K [kg/m3]	mass density, 393.15 K [kg/m3]	speed of sound, 343.15 K [m/s]	speed of sound, 353.15 K [m/s]
100 kPa	–	1523.6 ± 0.7	1501.6 ± 0.7	1478.1 ± 0.8	1454.4 ± 0.8	1430.4 ± 0.8	1405.6 ± 0.8	534.8 ± 1.3	509 ± 1.3
10000 kPa	–	1559.1 ± 0.8	1540 ± 0.8	1520.4 ± 0.8	1500.9 ± 0.8	1481.2 ± 0.8	1461.3 ± 0.9	–	–
20000 kPa	–	1587.8 ± 1	1570.5 ± 1	1553 ± 0.9	1535.8 ± 0.9	1518.4 ± 0.9	1500.9 ± 0.9	667.7 ± 1.5	647.6 ± 1.6
30000 kPa	–	1611.9 ± 1.2	1596 ± 1.2	1579.9 ± 1.1	1564.2 ± 1.1	1548.4 ± 1.1	1532.5 ± 1.1	–	–
40000 kPa	–	1633 ± 1.4	1618 ± 1.4	1603 ± 1.4	1588.4 ± 1.3	1573.8 ± 1.3	1559 ± 1.3	765 ± 1.7	747.5 ± 1.7
50000 kPa	–	1651.7 ± 1.7	1637.6 ± 1.7	1623.4 ± 1.6	1609.6 ± 1.6	1595.9 ± 1.6	1581.9 ± 1.5	–	–
60000 kPa	–	1668.7 ± 2	1655.2 ± 2	1641.7 ± 1.9	1628.5 ± 1.9	1615.5 ± 1.8	1602.2 ± 1.8	844.9 ± 1.8	828.9 ± 1.8
70000 kPa	–	1684.2 ± 2.3	1671.3 ± 2.3	1658.3 ± 2.2	1645.8 ± 2.2	1633.3 ± 2.1	1620.6 ± 2.1	–	–
80000 kPa	–	1698.6 ± 2.6	1686.2 ± 2.6	1673.6 ± 2.5	1661.7 ± 2.5	1649.6 ± 2.4	1637.1 ± 2.4	913.5 ± 2	898.5 ± 2
90000 kPa	–	1712 ± 2.9	1700 ± 2.9	1687.9 ± 2.8	1676.4 ± 2.8	1664.6 ± 2.8	1652.8 ± 2.7	–	–
100000 kPa	–	1724.4 ± 3.3	1712.9 ± 3.2	1701.2 ± 3.2	1689.9 ± 3.1	1678.5 ± 3.1	1667.1 ± 3	974 ± 2.1	960.3 ± 2.1
110000 kPa	–	1736.5 ± 3.6	1724.9 ± 3.6	1713.7 ± 3.5	1702.8 ± 3.4	1691.6 ± 3.4	1680.5 ± 3.3	–	–
120000 kPa	–	1747.8 ± 4	1736.6 ± 3.9	1725.3 ± 3.8	1714.7 ± 3.8	1704 ± 3.7	1693.2 ± 3.7	–	–
130000 kPa	1769.7 ± 4.4	1758.4 ± 4.3	1747.4 ± 4.2	1736.6 ± 4.2	1726.2 ± 4.1	1715.7 ± 4.1	1705.1 ± 4	–	–
140000 kPa	1779.5 ± 4.7	1768.6 ± 4.7	1757.8 ± 4.6	1747.3 ± 4.5	1737.1 ± 4.5	1726.8 ± 4.4	1716.3 ± 4.3	–	–
